Active and inactive are the calls of the source. The rule behind the calls is not given here.
Columns and labels:
Assay type in all cases: functional, cell-based
[1] = Cytotoxicity against mouse EN2 cells after 24 hrs by MTT assay; settings: EN2, 24 h
[2] = Cell cycle arrest in mouse EN2 cells assessed as accumulation at S phase after 48 hrs by flow cytometry relative to control
[3] = Cytotoxicity against mouse EN2 cells after 24 hrs by clonogenic assay; settings: EN2, 24 h
[4] = Cytotoxicity against mouse EN2 cells after 72 hrs by MTT assay; settings: EN2, 72 h
[5] = Cell cycle arrest in mouse EN2 cells assessed as accumulation at S phase after 24 hrs by flow cytometry relative to control
[6] = Cytotoxicity against mouse EN2 cells after 24 hrs by cell-count assay; settings: EN2, 24 h
[7] = Cell cycle arrest in mouse EN2 cells assessed as accumulation at G1 phase after 24 hrs by flow cytometry relative to control
[8] = Cell cycle arrest in mouse EN2 cells assessed as accumulation at G1 phase after 24 hrs by flow cytometry; settings: EN2, 24 h
EN2 [9] = assay: Cytotoxicity against mouse EN2 cells after 5 mins by MTT assay
EN2 [10] = assay: Cytotoxicity against mouse EN2 cells after 10 mins by MTT assay
EN2 [11] = assay: Cytotoxicity against mouse EN2 cells after 15 mins by MTT assay
[12] = Cytotoxicity against mouse EN2 cells after 2 hrs of incubation measured after 2 days by MTT assay
[13] = Cell cycle arrest in mouse EN2 cells assessed as accumulation at G1 phase at 0.4 uM after 24 to 48 hrs by flow cytometry relative to control
[14] = Cytotoxicity against mouse EN2 cells at 50 uM after 24 hrs by clonogenic assay; settings: EN2, 24 h
[15] = Cell cycle arrest in mouse EN2 cells assessed as accumulation at G1 phase at 0.4 uM after 12 hrs by flow cytometry relative to control
[16] = Cytotoxicity against mouse EN2 cells after 2 hrs of incubation measured after 6 days by clonogenic assay
[17] = Cytotoxicity against mouse EN2 cells after 2 hrs of incubation measured after 24 hrs by cell-count assay
[18] = Cell cycle arrest in mouse EN2 cells assessed as accumulation at G1 phase after 2 hrs of incubation measured after 24 hrs relative to control

Row | SMILES | IC50 [1] [µM] | IC50 [4] [µM] | IC50 [6] [µM] | Activity [7] | IC50 [8] [µM] | also measured
1 | C[C@@H]1CC[C@H]2[C@@H](C)C(=O)O[C@@H]3O[C@@]4(C)CC[C@@H]1[C@]32OO4 [ARTEMISININ] | 11.5 | 0.98 | 30 | inactive | 1 | Activity [2]: inactive; IC50 [3]: > 50 µM; Activity [5]: Dose-dependent effect
2 | C[C@@H]1CC[C@@H]2[C@]34OO[C@](C)(CC[C@@H]13)O[C@H]4OC(=O)[C@@]21CO1 | – | 12.7 | – | – | – | –
3 | C[C@H]1[C@H](O[C@H]2O[C@@H]3O[C@]4(C)CC[C@H]5[C@H](C)CC[C@@H]([C@H]2C)[C@@]35O4)O[C@@H]2O[C@]3(C)CC[C@H]4[C@H](C)CC[C@@H]1[C@@]24O3 [listing 1 of 2 here] | – | 99.8 | – | – | – | –
4 | C[C@H]1[C@H](O[C@H]2O[C@@H]3O[C@]4(C)CC[C@H]5[C@H](C)CC[C@@H]([C@H]2C)[C@@]35O4)O[C@@H]2O[C@]3(C)CC[C@H]4[C@H](C)CC[C@@H]1[C@@]24O3 [listing 2 of 2 here] | – | 8.9 | – | – | – | –
5 | C[C@H]1[C@@H](O[C@H]2O[C@@H]3O[C@]4(C)CC[C@H]5[C@H](C)CC[C@@H]([C@H]2C)[C@@]35OO4)O[C@@H]2O[C@]3(C)CC[C@H]4[C@H](C)CC[C@@H]1[C@@]24OO3 | 7.2 | 2 | 8.9 | Active | 1 | Activity (EN2 [9]): Active; IC50 [3]: > 50 µM; Activity (EN2 [10]): Active; Activity (EN2 [11]): Active
6 | C[C@H]1[C@H](O[C@H]2O[C@@H]3O[C@]4(C)CC[C@H]5[C@H](C)CC[C@@H]([C@H]2C)[C@@]35OO4)O[C@@H]2O[C@]3(C)CC[C@H]4[C@H](C)CC[C@@H]1[C@@]24OO3 | 0.35 | 0.11 | 0.54 | Active | 0.05 | IC50 [12]: 3.6 µM; Activity [13]: inactive; IC50 [14]: 1 µM; Activity (EN2 [9]): Active; Activity [15]: Active; IC50 [16]: 55.6 µM; IC50 [17]: 9.3 µM; Activity (EN2 [10]): Active; Activity [18]: Dose-dependent effect; IC50 [18]: 1 µM; Activity (EN2 [11]): Active
7 | C[C@@H]1CC[C@@H]2[C@]34OO[C@](C)(CC[C@@H]13)O[C@H]4OC(=O)[C@]21CO1 | – | > 100 | – | – | – | –
8 | C[C@@H]1CC[C@H]2[C@@H](C)C(=O)O[C@@H]3O[C@@]4(C)CC[C@@H]1[C@]32O4 [DEOXYARTEMISININ] | – | 111 | – | – | – | –

— ChEMBL document CHEMBL1145693, “Stereochemistry-dependent cytotoxicity of some artemisinin derivatives” (J Nat Prod, 1997)
